Test results from paper PMC10341634, “Vasodilating Effects of Antispasmodic Agents and Their Cytotoxicity in Vascular Smooth Muscle Cells and Endothelial Cells—Potential Application in Microsurgery” (International Journal of Molecular Sciences, 2023).
Where two headings read alike, the source gives them in different places.

Columns and labels:
[1] = test system: rat smooth muscle cells (RSMCs); experiment: cells
Protocol: Rat smooth muscle cells were cultured in DMED:F12 (Lonza, Besel, Switzerland) containing 10% fetal bovine serum, 1% penicillin/streptomycin solution (GA-1000; Lonza, Basel, Switzerland), and 1% stable glutamine (Wako, Tokyo, Japan) at 37 °C in a 5% CO2 incubator. The medium was changed every three days. Once the adherent cells reached 70–80% subconfluence, they were detached from the dish using Accutase (Nacalai Tesque, Kyoto, Japan). The cell suspension was diluted with DMED:F12 (+FBS) and adjusted to a concentration of 5 × 10^4 cells/mL, and then 100 μL of the suspension was seeded into each well of a 96-well dish (Nunc™ MicroWell™ 96-Well, Nunclon Delta-Treated, Flat-Bottom Microplate, Thermo Fisher, Waltham, MA, USA) and incubated for two days at 37 °C in a 5% CO2 incubator. Passage 6 smooth muscle cells were used, and five 96-well plates were prepared.
(§1) IC50 is the drug concentration at which half of the cells undergo cell death; it serves as an indicator of cellular toxicity. […] IC50 values were measured using the GloMax® Navigator System (Promega, Madison, WI, USA). The test compounds were diluted in the culture medium and stored in an incubator until use. […] For each test compound, a control and 11 different concentrations were prepared, and the cytotoxicity after the addition of the compounds was examined. The RealTime-GloTM MT Cell Viability Assay kit (Promega, cat#G9711, USA) was used, and the substrate and Nano-luc were added to the medium in each well of a 96-well plate seeded with RSMCs and HCAECs, with 50 μL per well. The plate was incubated for 1–3 h in the incubator. Then, 50 μL of each prepared test compound was added to the plate. The IC50 values were measured using GloMax at 1, 5, 10, 30, and 60 min after the addition of the test compounds, and cytotoxicity was evaluated.

[2] = test system: human coronary artery endothelial cells (HCAECs); experiment: cells
Protocol: Human coronary artery ECs were cultured in a collagen-coated dish (AGC TECHNO GLASS Co., Shizuoka, Japan) in EBM-2 (CC-3156, Lonza, Besel, Switzerland) containing Supplements and Growth Factors (CC-4176, Lonza, Besel, Switzerland). The cells were cultured at 37 °C in a 5% CO2 incubator. The medium was changed every three days until the adherent cell monolayer reached 70–80% subconfluence. Subsequently, cells were detached from the dish using Accutase. The cell suspension was diluted with medium, adjusted to a concentration of 5 × 10^4 cells/mL, and seeded into a 96-well plate. The dish was incubated for two days at 37 °C in a 5% CO2 incubator. En ECs at passages 5–6 were used, and five 96-well plates were prepared.
as §1

[3] = test system: rat abdominal aorta; conditions: cited from earlier work
[4] = 1% lidocaine; cited from earlier work
[5] = cited from earlier work
[6] = test system: NE-dependent contractions; conditions: cited from earlier work
[7] = 4% lidocaine administered locally; humans; cited from earlier work
[8] = test system: rat abdominal aorta; experiment: Wire myograph vasodilation of norepinephrine-contracted rat abdominal aorta rings; conditions: for concentration achieving maximal vasodilation effect (approximately 100% relaxation): 10 min after administration, contraction induced by 5 μM norepinephrine
Protocol: Consistent with our previous study, we applied a 1 gram-force (gf) load to approximately 1 mm cross-sectional slices of the rat abdominal aorta. Subsequently, we induced contraction by adding 5 μM norepinephrine. Various vasodilators were then added, and the concentration at which the vessels relaxed back to 1 gf was considered the concentration required for 100% relaxation.
A wire myograph system (Bio Research Co., Osaka, Japan) was used, as previously reported by Ogawa et al.. The rat abdominal aortae were cut into rings and manipulated using two L-shaped hooks. One hook was fixed, and the other was connected to an amplifier to measure the force exerted on the pulled vessel in grams. The rats were deeply anesthetized, and the abdominal aorta was dissected. The excised vessels were immersed in Ringer solution (NaCl 118 mM, KCl 4.7 mM, CaCl2/2H2O 2.5 mM, MgSO4/7H2O 1.2 mM, KH2PO4 1.2 mM, NaHCO3 25 mM, C6H12O6 11 mM, Na2EDTA 0.5 mM). The rat aorta was then sliced into approximately 1 mm-wide rings and hooked onto L-shaped hooks. The chamber was filled with 3 mL of Krebs-Ringer solution, and a gas mixture of 95% O2 and 5% CO2 was bubbled through. The chamber was maintained at 37 °C.
Once the wire myograph system was initiated, the wire was moved, and a load was exerted on the hook-attached chamber. The applied tensile force, amplified by a transducer and PowerLab (ADInstruments, Bella Vista, New South Wales, Australia), was continuously recorded as gram force using LabChart (ADInstruments, Bella Vista, New South Wales, Australia). The hook is pulled to apply a load of up to 1 gf. A resting period of approximately 10 min was required for the gradual relaxation of the vessel under tension from the hook. When relaxation reached a plateau, norepinephrine was added to the solution to achieve a final concentration of 5 μM. This causes the vessel to contract, increasing the load on the artery and surpassing 1 gf on the myograph recording. […] The reduction in load on the vessel in terms of gf was assessed to determine the relaxation rate and concentration (Figure 4). […]

[9] = design: method as in PMID 25357051; conditions: cited from earlier work
[10] = test system: rat testicular vasculature; design: method as in doi:10.1007/BF00585581; conditions: local administration after epinephrine-induced vasoconstriction; cited from earlier work
[11] = Rattus norvegicus, 1 min, read-out: IC50 (cell viability), RSMCs, 1 min after addition
[12] = Rattus norvegicus, 5 min, read-out: IC50 (cell viability), RSMCs, 5 min after addition
[13] = Rattus norvegicus, 10 min, read-out: IC50 (cell viability), RSMCs, 10 min after addition
[14] = Rattus norvegicus, 0.5 h, read-out: IC50 (cell viability), RSMCs, 30 min after addition
[15] = Rattus norvegicus, 1 h, read-out: IC50 (cell viability), RSMCs, 60 min after addition
[16] = read-out: IC50 (cell viability), RSMCs, 1 min after addition
[17] = Homo sapiens, Endothelial cell, 1 min, read-out: IC50 (cell viability)
[18] = Homo sapiens, Endothelial cell, 5 min, read-out: IC50 (cell viability)
[19] = Homo sapiens, Endothelial cell, 10 min, read-out: IC50 (cell viability)
[20] = Homo sapiens, Endothelial cell, 0.5 h, read-out: IC50 (cell viability)
[21] = Homo sapiens, Endothelial cell, 1 h, read-out: IC50 (cell viability)

Work on `CCN(CC)CC(=O)Nc1c(C)cccc1C` [Lidocaine, lidocaine] yielded an IC50 [1, 11] of 55300 µM, an IC50 [1, 12] of 27900 µM and an IC50 [1, 13] of 16700 µM. The IC50 [1, 14] was 10100 µM, the IC50 [1, 15] was 7100 µM and the “IC50 expressed as percent concentration” value ([1]; SMC, 1-min post-dose) was 1.58%. It also gave an IC50 [1, 16] of 55300 µM, an IC50 ([1]; read-out: IC50 (cell viability), RSMCs, 5 min after addition) of 27900 µM and an IC50 ([1]; read-out: IC50 (cell viability), RSMCs, 10 min after addition) of 16700 µM. The “IC50 expressed as percent concentration” value ([2]; EC, 1-min post-dose) was 0.70%, the IC50 [2, 17] was 24400 µM and the IC50 [2, 18] was 16800 µM. It also gave an IC50 [2, 19] of 13500 µM, an IC50 [2, 20] of 10300 µM and an IC50 [2, 21] of 7640 µM. The relaxation ([3]; 1% lidocaine for 10 min) was “approximately 100%”, the “concentration achieving maximal vasodilation effect (approximately 100% relaxation)” value ([3]; 10 min after administration, 5 μM norepinephrine, lidocaine data from previous research) was 35 mM and the osmotic pressure [4] was 282 mOsm/L. The “duration of antispasmodic effect” value [5] was 10 to 20 min, the “onset of antispasmodic effect” value [5] was 45 to 90 s and the “high concentrations relieving NE-dependent contractions and increasing blood flow” value [6] was 4.5 to 15 mM. For the same compound, the “low concentrations causing vasoconstriction” value [6] was 15 to 1500 µM and the “peak concentration measured in peripheral blood” value [7] was 1.5 µg/mL.

In the case of `O=[N+]([O-])OCC(CO[N+](=O)[O-])O[N+](=O)[O-]` [Nitroglycerine, nitroglycerin], the “concentration achieving maximal vasodilation effect (approximately 100% relaxation)” value [8] is reported as 0.022 mM, the relaxation ([8]; at the investigated concentrations, 10 min, 5 μM norepinephrine) is reported as “approximately 50%” and the IC50 [1, 14] is reported as 130 µM. For the same compound, the IC50 [1, 15] was 109 µM, the IC50 ([1]; read-out: IC50 (cell viability), RSMCs, 30 min after addition) was 134 µM and the IC50 ([2]; Homo sapiens, Endothelial cell, 10 min, read-out: IC50 (cell viability), HCAECs, 10 min after addition) was 35 µM. It also gave an IC50 ([2]; Homo sapiens, Endothelial cell, 0.5 h, read-out: IC50 (cell viability), HCAECs, 30 min after addition) of 38 µM, an IC50 ([2]; Homo sapiens, Endothelial cell, 1 h, read-out: IC50 (cell viability), HCAECs, 60 min after addition) of 38.8 µM and an IC50 ([2]; read-out: IC50 (cell viability), HCAECs, 10 min after addition) of 35.1 µM.

With `Cc1[nH]c(=O)c(C#N)cc1-c1ccc2nccn2c1` [Olprinone, olprinone] the cellular toxicity [1] was “No cellular toxicity was observed” and the cellular toxicity [2] was “No cellular toxicity was observed”.

For `COc1ccc(Cc2nccc3cc(OC)c(OC)cc23)cc1OC` [Papaverine, papaverine], the “concentration achieving maximal vasodilation effect (approximately 100% relaxation)” value [8] was 0.18 mM, the IC50 [1, 11] was 100 µM and the IC50 [1, 12] was 118 µM. It also gave an IC50 [1, 13] of 13.5 µM, an IC50 [1, 14] of 15.9 µM and an IC50 [1, 15] of 1.5 µM. The IC50 [1, 16] was 97 µM, the IC50 ([1]; read-out: IC50 (cell viability), RSMCs, 1 min after addition, listed as papaverine hydrochloride) was 97 µM and the IC50 ([1]; read-out: IC50 (cell viability), RSMCs, 60 min after addition) was 1.46 µM. The IC50 [2, 17] was 56 µM, the IC50 [2, 18] was 4.04 µM and the IC50 [2, 19] was 4.29 µM. For the same compound, the IC50 [2, 20] was 5 µM, the IC50 [2, 21] was 6.48 µM and the “time until effects become evident” value ([5]; after local administration) was 1 to 5 min. The “pH of clinically used concentrations” value [9] was 3–4.5.

In the case of `Cc1ccc(N(CC2=NCCN2)c2cccc(O)c2)cc1` [Phentolamine, phentolamine], the cellular toxicity [1] is given as “No cellular toxicity was observed”, the cellular toxicity [2] is given as “No cellular toxicity was observed” and the “onset of the effect” value [10] is given as at most 2 min. The sustained effect [10] was “up to 20 min”.
